According to patent US10221190B2, “Biguanide compounds and use thereof” (IMMUNOMET THERAPEUTICS INC., priority 2013, dated 2019):

Key:
SK-MEL-28 cells = assay: Inhibitory activity against cancer cells (MTT cell viability), SK-MEL-28; assay type: cell-based; conditions: Homo sapiens, SK-MEL-28, 48 hr incubation
Experimental: (§1) The inhibitory activities of biguanide derivatives against cancer cells were evaluated in the cell line SK-MEL-28 derived from human Melanoma cell, Miapaka-2 cell line derived from human pancreatic cancer cell and HCT116 cell line derived from human colorectal cancer cell by measuring the concentration that inhibits 50% of the growth of the cell lines (the half maximal inhibitory concentration, IC50).
(§2) Firstly, SK-MEL-28 cells were grown to be density of 5,000 cells/well in RPMI-1640 media supplemented with 10% (v/v) bovine calf serum, on 96-well plates for 16 hr. To measure the IC50 of each compound, the cells were incubated for 48 hr with the 100 mM PBS stock compounds at an amount of 10 mM, 1 mM, 200 uM, 40 uM, 8 uM, 1.6 uM, 0.32 uM or 0.064 uM; 50 mM PBS and EtOH stock compounds at an amount of 1 mM, 200 uM, 40 uM, 8 uM, 1.6 uM, 0.32 uM and 0.064 uM; and 50 mM DMSO stock compounds at an amount of 100 uM, 25 uM, 6.25 uM, 1.56 uM, 0.39 uM, 0.10 uM and 0.02 uM, respectively. To test the viable cells after incubation with each compound, the cell cultures were incubated additionally for 2 hr in the presence of MTT. The produced formazan crystals were dissolved with dimethyl sulfoxide and then measured by detecting the absorbance at 560 nm.
(§3) After the 48 hr incubation, the viable cells were counted on the well plates treated with the compounds of the Examples relative to the count of the viable cells on the non-treated plates, and then was represented as the cell viability (%). By using the cell viability (%) result, the cell viability curve was plotted, and IC50 was calculated from the curve to evaluate the inhibitory activity against cancer cells.

Miapaca-2 cell = assay: Inhibitory activity against cancer cells (MTT cell viability), Miapaca-2; assay type: cell-based; conditions: Homo sapiens, MIA PaCa-2, Miapaca-2, 48 hr incubation
Experimental: as §1, §2, §3
(§4) The inhibitory activities of biguanide derivatives against cancer cells of Miapaca-2 cell and HCT116 cell were evaluated according to the substantially same method as described in SK-MEL-28 cell, except that DMEM media supplemented with 10% (v/v) bovine calf serum was used instead of RPMI-1640 media supplemented with 10% (v/v) bovine calf serum for SK-MEL-28 cell.

HCT116 cell = assay: Inhibitory activity against cancer cells (MTT cell viability), HCT116; assay type: cell-based, human; conditions: HCT 116, 48 hr incubation
Experimental: as §1, §2, §3, §4

Row | IC50 (HCT116 cell; Homo sapiens) [µM] | Compound | other results
1 | > 100 | N=C(NCc1ccc2c(c1)OCO2)NC(=N)N1CCCC1 [Example 1, N1-pyrrolidine-N5-(benzo[1,3]dioxol-5-ylmethyl) biguanide] | IC50 (SK-MEL-28 cells): 107 µM; IC50 (Miapaca-2 cell): 36.2 µM
2 | > 100 | N=C(NC(=N)N1CCCC1)Nc1ccc2c(c1)CCCC2 [Example 14, N1-pyrrolidine-N5-(5,6,7,8-tetrahydronaphthalene-2-yl) biguanide] | IC50 (SK-MEL-28 cells): 29.5 µM; IC50 (Miapaca-2 cell): 26.6 µM
3 | > 100 | N=C(NC(=N)N1CC[C@H](O)C1)Nc1ccc(OC(F)(F)F)cc1 [Example 17, N1-(S)-3-hydroxy pyrrolidine-N5-(4-trifluoromethoxy)phenyl biguanide] | IC50 (SK-MEL-28 cells): 184 µM; IC50 (Miapaca-2 cell): 113 µM
4 | > 100 | N=C(NC(=N)N1CCCC1)Nc1ccc(C(N)=O)cc1 [Example 23, N1-pyrrolidine-N5-4-benzamide biguanide] | IC50 (SK-MEL-28 cells): > 1000 µM; IC50 (Miapaca-2 cell): 2340 µM
5 | > 100 | N=C(NC(=N)N1CCCC1)Nc1ccc(/C=C/C(=O)N2CCCCC2)cc1 [Example 24, (E)-N—(N-(4-(3-oxo-3-(piperidin-1-yl)prop-1-enyl)phenyl)carbamimidoyl)pyrrolidine-1-carboximidamide] | IC50 (SK-MEL-28 cells): > 100 µM; IC50 (Miapaca-2 cell): > 100 µM
6 | 29.2 | N=C(NCc1ccc(C(F)(F)F)cc1)NC(=N)Nc1cccnc1 [Example 64, N1-3-pyridine-N5-(4-trifluoromethyl)benzyl biguanide] | 
7 | > 100 | N=C(NC(=N)Nc1ccc(F)c(C(F)(F)F)c1)Nc1cccnc1 [Example 65, N1-3-pyridine-N5-(4-fluoro-3-trifluoromethyl)phenyl biguanide] | 
8 | > 100 | N=C(NC(=N)Nc1cnccn1)Nc1ccc(OC(F)(F)F)cc1 [Example 66, N1-2-pyrazine-N5-(4-trifluoromethoxy)phenyl biguanide] | 
9 | 50.7 | N=C(NC(=N)Nc1cnccn1)Nc1ccc(C(F)(F)F)cc1 [Example 67, N1-2-pyrazine-N5-(4-trifluoromethyl)phenyl biguanide] | 
10 | 53.1 | N=C(NC(=N)NC1CCCC1)Nc1ccc(OC(F)(F)F)cc1 [Example 68, N1-cyclopentyl-N5-(4-trifluoromethoxy)phenyl biguanide] | 
11 | 68.5 | N=C(NC(=N)NC1CCCC1)Nc1ccc(F)cc1 [Example 69, N1-cyclopentyl-N5-(4-fluoro)phenyl biguanide] | 
12 | 13.5 | N=C(NCc1ccco1)NC(=N)Nc1ccc(Cl)cc1 [Example 70, N1-furan-2-ylmethyl-N5-(4-chloro)phenyl biguanide] | 
13 | 6.9 | N=C(NCc1ccco1)NC(=N)Nc1ccc(OC(F)(F)F)cc1 [Example 71, N1-furan-2-ylmethyl-N5-(4-trifluoromethoxy)phenyl biguanide] | 
14 | 8.8 | N=C(NCc1ccco1)NC(=N)Nc1ccc(C(F)(F)F)cc1 [Example 72, N1-furan-2-ylmethyl-N5-(4-trifluoromethyl)phenyl biguanide] | 
15 | 8.21 | N=C(NC(=N)Nc1ccc(-c2ccccc2)cc1)Nc1ccc(OC(F)(F)F)cc1 [Example 75, N1-(4-trifluoromethoxy)phenyl-N5-(N-biphenyl-4-yl) biguanide] | 
16 | > 100 | N=C(NC(=N)N1CCCC1)Nc1ccc(CCNC(=O)CCCCC2CC3NC(=O)NC3S2)cc1 (stereo not drawn) [Example 77, N-(4-(3-(imino(pyrrolidin-1-yl)methyl)guanidino)phenethyl)-5-(2-oxohexahydro-1H-thieno[2,3-d]imidazol-5-yl)pentaneamide] | 
17 | > 100 | CC1CCCCN1C(=N)NC(=N)Nc1ccc(CCNC(=O)CCCCC2CC3NC(=O)NC3S2)cc1 (stereo not drawn) [Example 78, N-(4-(3-(imino(2-methylpiperidin-1-yl)methyl)guanidino)phenethyl)-5-(2-oxohexahydro-1H-thieno[2,3-d]imidazol-5-yl)pentanamide] | 
18 | > 100 | CC1CC(C)CN(C(=N)NC(=N)Nc2ccc(CCNC(=O)CCCCC3CC4NC(=O)NC4S3)cc2)C1 (stereo not drawn) [Example 79, N-(4-(3-((3,5-dimethylpiperidin-1-yl)(imino)methyl)guanidino)phenethyl)-5-(2-oxohexahydro-1H-thieno[2,3-d]imidazol-5-yl)pentanamide] | 

Row | IC50 (HCT116 cell; Homo sapiens) [µM] | Compound | other results
19 | > 100 | N=C(NC(=N)N1CC=CCC1)Nc1ccc(CCNC(=O)CCCCC2CC3NC(=O)NC3S2)cc1 (stereo not drawn) [Example 80, N-(4-(3-((5,6-dihydropyridin-1(2H)-yl)(imino)methyl)guanidino)phenethyl)-5-(2-oxohexahydro-1H-thieno[2,3-d]imidazol-5-yl)pentanamide] | 
20 | > 100 | C[C@@H]1CCC[C@H](C)N1C(=N)NC(=N)Nc1ccc(CCNC(=O)CCCCC2CC3NC(=O)NC3S2)cc1 (stereo partly drawn) [Example 81, N-(4-(3-(((2R,6S)-2,6-dimethylpiperidin-1-yl)(imino)methyl)guanidino)phenethyl)-5-(2-oxohexahydro-1H-thieno[2,3-d]imidazol-5-yl)pentanamide] | 
21 | > 100 | N=C(NC(=N)N1CCCC1)Nc1ccc(NC(=O)CCCCC2CC3NC(=O)NC3S2)cc1 (stereo not drawn) [Example 82, N-(4-(3-(imino(pyrrolidin-1-yl)methyl)guanidino)phenyl)-5-(2-oxohexahydro-1H-thieno[2,3-d]imidazol-5-yl)pentanamide] | 
22 | 56.8 | N=C(NC(=N)N1CCCC1)Nc1ccc(CNC(=O)c2ccccc2-c2c3ccc(=O)cc-3oc3cc(O)ccc23)cc1 [Example 83, 2-(6-hydroxy-3-oxo-3H-xanthen-9-yl)-N-(4-(3-(imino(pyrrolidin-1-yl)methyl)guanidino)benzyl)benzamide] | 
23 | 27.4 | C[C@@H]1CCC[C@H](C)N1C(=N)NC(=N)Nc1ccc(CNC(=O)c2ccccc2-c2c3ccc(=O)cc-3oc3cc(O)ccc23)cc1 [Example 84, N-(4-(3-(((2R,6S)-2,6-dimethylpiperidin-1-yl)(imino)methyl)guanidino)benzyl)-2-(6-hydroxy-3-oxo-3H-xanthen-9-yl)benzamide] | 
24 | 28.8 | CC1CC(C)CN(C(=N)NC(=N)Nc2ccc(CNC(=O)c3ccccc3-c3c4ccc(=O)cc-4oc4cc(O)ccc34)cc2)C1 (stereo not drawn) [Example 85, N-(4-(3-((3,5-dimethylpiperidin-1-yl)(imino)methyl)guanidino)benzyl)-2-(6-hydroxy-3-oxo-3H-xanthen-9-yl)benzamide] | 
25 | 53.2 | CC1CCCN(C(=N)NC(=N)Nc2ccc(CNC(=O)c3ccccc3-c3c4ccc(=O)cc-4oc4cc(O)ccc34)cc2)C1 (stereo not drawn) [Example 86, 2-(6-hydroxy-3-oxo-3H-xanthene-9-yl)-N-(4-(3-(imino(3-methylpiperidine-1-yl)methyl)guanidino)benzyl)benzamide] | 
26 | 2.57 | N=C(NC(=N)N1CCc2ccccc2C1)Nc1ccc(OC(F)(F)F)cc1 [Example 87, N—(N-(4-(trifluoromethoxy)phenyl)carbamimidoyl)-3,4-dihydroisoquinolin-2(1H)-carboximidamide] | 
27 | 7.42 | N=C(NC(=N)N1CCc2ccccc21)Nc1ccc(OC(F)(F)F)cc1 [Example 88, N—(N-(4-(trifluoromethoxy)phenyl)carbamimidoyl)indoline-1-carboximidamide] | 
28 | 27.7 | N=C(NC(=N)N1CCc2ccccc21)Nc1ccc(Oc2ccccc2)cc1 [Example 90, N—(N-(4-phenoxyphenyl)carbamimidoyl)indoline-1-carboximidamide] | 
29 | 11 | N=C(NC(=N)N1CCc2ccccc21)Nc1cccc(Oc2ccccc2)c1 [Example 91, N—(N-(3-phenoxyphenyl)carbamimidoyl)indoline-1-carboximidamide] | 
30 | > 100 | N=C(Nc1nc2cc(OC(F)(F)F)ccc2[nH]1)N1CCCC1 [Example 92, N-(5-(trifluoromethoxy)-1H-benzo[d]imidazol-2-yl)pyrrolidine-1-carboximidamide] | 
31 | > 100 | N=C(Nc1nc2cc(F)ccc2[nH]1)N1CCCC1 [Example 93, N-(5-fluoro-1H-benzo[d]imidazol-2-yl)pyrrolidine-1-carboximidamide] | 
32 | > 100 | Cc1ccc2[nH]c(NC(=N)N3CCCC3)nc2c1 [Example 94, N-(5-methyl-1H-benzo[d]imidazol-2-yl)pyrrolidine-1-carboximidamide] | 
33 | > 100 | COc1ccc2[nH]c(NC(=N)N3CCCC3)nc2c1 [Example 95, N-(5-methoxy-1H-benzo[d]imidazol-2-yl)pyrrolidine-1-carboximidamide] | 
34 | > 100 | N=C(Nc1nc2ccccc2[nH]1)N1CCCC1 [Example 96, N-(1H-benzo[d]imidazol-2-yl)pyrrolidine-1-carboximidamide] | 
35 |  | N1-3-phenoxyphenyl-N5-(4-trifluoromethoxy)phenyl biguanide [Example 76] | IC50 (HCT116 cell): 3.12 µM
